Assay [1] concerns human fetal lung fibroblasts IMR-90. It counts as cell-based. The conditions noted are these: 48 h. As for the experimental part: DICAM’s cytotoxicity was determined employing a modified MTT assay as described elsewhere ([Antúnez-Mojica et al., 2016]) using human lung carcinoma epithelial cells A549, human fetal lung fibroblasts IMR-90, and human HeLa cervix carcinoma cells treated with increasing concentrations of DICAMs (0.8–200 µM range). A549 cells were grown in RPMI 1640 (Gibco; Fisher Scientific, Spain) supplemented with 10% FCS, 2 mM glutamine, 100 IU/mL penicillin and 100 μg/mL streptomycin. IMR-90 and HeLa cells were cultured in DMEM (Gibco; Fisher Scientific, Spain) supplemented with 10% FCS, 2 mM L-glutamine, 1 mM pyruvate, […] penicillin, 100 μg/mL streptomycin and 40 μg/mL gentamycin. Cell viability was assessed after 48 h exposure to DICAMs. Vinblastine was used as a positive control. IC50 value is the concentration that gives 50% inhibition of cell growth and was determined using SigmaPlot (Systat) fitting to a Four Parameter Logistic curve.

The test system of another assay is S. pyogenes T. Put plainly: Dose dependence of bacterial viability (CFU counting, Hill fit). It counts as cell-based, Streptococcus pyogenes. The following applies: for EC50 / Δlogmax, S. pyogenes T / SC (stationary concentration, Δlog = 0), S. pyogenes T: 2 h treatment, Hill fit; for EC50 / Δlogmax, S. pyogenes T / Decrease of the number of viable bacteria in the inoculum within 2 h: BHI; for EC50 / Δlogmax, S. pyogenes T / Decrease of the number of viable bacteria in the inoculum within 2 h / SC (stationary concentration, Δlog = 0), S. pyogenes T: 37°C; for EC50: read-out: K 1/2 (concentration yielding half-variation in Δlogmax), S. pyogenes T (converted); for Δlogmax, S. pyogenes T: maximum variation in viability; for Decrease of the number of viable bacteria in the inoculum within 2 h: S. pyogenes T; for Reduction of bacterial viability at 3 × SC, S. pyogenes T: after 2 h of incubation at 3 × SC; for SC (stationary concentration, Δlog = 0), S. pyogenes T: BHI medium, added at T1, 10^7–10^8 CFU/mL, CFU vs untreated controls. The text has this: First, the substitution of the fatty amino chain of 18 carbon atoms of the reference compound DICAM 2 by either an OMe group (methylated tripeptide DICAM 5) or an amine with 12 carbon atoms (DICAM 9) abolished the activity against all three pathogens. However, the activity remained intact when the chain of the fatty amine of prototypes DICAMs 1 and 4 was two carbon atoms shorter (DICAM 10 and DICAM 12, respectively), based on S. pneumoniae and S. pyogenes results. […] Third, Glu and Ala were tolerated as C-terminal residues of the lipotripeptides. […] In addition, deletion of the C-terminal Glu (DICAM 13) eradicated the activity against S. pneumoniae and S. aureus. However, a delay and small inhibition of S. pyogenes ^T growth was still observed. Fourth, Glu (DICAMs 19 and 20) and Orn (DICAMs 21 and 22) were tolerated as N-terminal residues, with the impact of these modifications being pathogen-dependent. […] SAR studies continued by measuring the dose dependence of DICAM’s activity at T1 with all the compounds found to be active against S. pyogenes or S. aureus in the initial screening, and all but one compound in the case of S. pneumoniae. The OD values of bacterial cultures were monitored after DICAM addition, and the decrease in the number of viable bacteria was measured relative to controls (Figures 4–6; Supplementary Figure S1). As antibacterial efficacy may decline with the bacterium dose in the inoculum ([Belley et al., 2009]; [Udekwu et al., 2009]; [Luca et al., 2013]), the assays were performed using the bacterial concentrations necessary for the fluorescence experiments in Section 2.3 (10^7–10^8 CFU/mL). At these high bacterial densities, MICs were determined as the DICAM concentration at which bacteria neither grow nor are killed (the stationary concentration (SC)), following [Udekwu et al., 2009]. By fitting the logarithmic plot of cell viability decrease vs. the DICAM dose to a Hill function (see Section 5.2.3.1) we were able to determine the maximum variation in viability (Δlogmax = ∆log f - ∆log 0, where ∆log f and ∆log 0 are the upper and lower limits of Δlog) in the assay conditions, the SC concentration (Δlog = 0), the dose required for half-variation in Δlogmax (K 1/2), and the cooperativity of the antimicrobial effect (N H).
(§1) Susceptibility to DICAMs was first tested by growth-inhibition assays at 50 and 100 μM of compound. Briefly, working solutions at 5 mM or 10 mM DICAM in pure DMSO were prepared from DICAM stocks (40 mM in pure DMSO) and diluted with fresh culture medium to 5× the desired final concentration. Aliquots (50 µL) of these solutions were added to 200 µL of bacterium cultures grown to early exponential phase (OD550/600 c. a. 0.15–0.2 in sterile 96-well plates (Cultek, Spain). Incubation continued for 10 h at 37°C and turbidity (OD550/600) values were measured every 20 min to monitor growth and lysis, using a VersaMax microplate reader (Molecular Devices; United Kingdom). Next, the activity dependence on DICAM’s dose was examined by measuring the turbidity of treated and untreated cultures as a function of time. Also, the decay of bacterial viability (CFU/mL) at selected times of treatment was assessed by colony counting on LB-agar or TSA plates after overnight incubation at 37°C. By default, 10 μL of 10-fold serially diluted samples were plated, which set the lower detection limit at 10^2 CFU/mL (10^1 CFU/mL when 100 μL of the undiluted sample was seeded).
As antibacterial efficacy may decline with the bacterium dose in the inoculum ([Belley et al., 2009]; [Udekwu et al., 2009]; [Luca et al., 2013]), activity assays were performed using the bacterial concentrations required for the fluorescence experiments in Section 2.3 (10^7–10^8 CFU/mL). At such bacterial densities, MICs were determined as the DICAM concentration at which bacteria neither grow nor are killed under assay conditions (the stationary concentration (SC)), as indicated in Section 2.2. […]

The subject of assay [2] is Streptococcus pneumoniae R6. Kind of assay: Growth inhibition / lysis screening of planktonic cultures (OD550/600). It counts as cell-based. More on the design: key: (+++) full inhibition; (++) partial inhibition; (+) growth retardation; -: (−) no effect. The conditions noted are these: S. pneumoniae R6, 50 and 100 μM compound added at early logarithmic phase (T1), OD550/600 followed 10 h, 37°C. The protocol: Planktonic cultures of selected pathogens (S. pneumoniae R6, S. pyogenes ^T, Staphylococcus aureus ^T, Escherichia coli DH10B, and Pseudomonas aeruginosa PAO1 strains) on early logarithmic-phase (T1) were assayed for their sensitivity to a broad range of DICAM compounds, as indicated in Table 1. Their bacteriostatic or lytic effect was first tested by measuring the variation of the OD550/600 as a function of time (10 h) when (50/100 μM) DICAMs were added, compared to untreated controls. The screening results, summarized in Table 1, evidenced that a potent antimicrobial activity may exist even when the negative charge of the peptide was higher than in the prototype compounds.
as §1

For the next assay, the system named is Staphylococcus aureus T. Kind of assay: Growth inhibition screening of planktonic cultures (OD550/600). It counts as cell-based. Set-up: key: (+++) full inhibition; (++) partial inhibition; (+) growth retardation; -: (−) no effect. The conditions noted are these: S. aureus T, 50 and 100 μM compound added at T1, OD550/600 followed 10 h, 37°C. The essentials:
(§2)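 Early exponential-phase cultures (OD550/600 c. a. 0.15–0.2) were treated with DICAMs at 50 and 100 μM final, diluted from DMSO stocks into medium, and incubated 10 h at 37°C. Turbidity (OD550/600) was read every 20 min against untreated controls to track growth inhibition and lysis.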

The next assay has as its system Escherichia coli DH10B. The assay is described as above. It counts as cell-based. More on the design: key: (+++) full inhibition; (++) partial inhibition; (+) growth retardation; -: (−) no effect. The following applies: E. coli DH10B, 50 and 100 μM compound added at T1, OD550/600 followed 10 h, 37°C. The method, boiled down:
as §2

These results are taken from PMC11329928, “Design, synthesis and structure-activity relationship (SAR) studies of an unusual class of non-cationic fatty amine-tripeptide conjugates as novel synthetic antimicrobial agents” (Frontiers in Pharmacology, 2024).

As a reminder, the IC50 is the midpoint of a concentration-inhibition curve.

“And” between values parts separate entries of the source, which are not always exact repeats. Equal entries are not always repeated. Structures can show the parent of a compound that is named as a salt.

In assay [1], `CCCCCCCCCCCCCCCCCCNC(=O)[C@H](CCC(=O)O)NC(=O)[C@H]1CCCN1C(=O)[C@H](CC(N)=O)NC(=O)OCc1ccccc1` [DICAM 1, Cbz-Asn- Pro -Glu-NH-C18H37] displayed an IC50 of 39 ± 1 µM. For the same molecule, in the assay on S. pyogenes T, the EC50 is 8.3 ± 0.9 µM and the “Δlogmax, S. pyogenes T” value worked out at 2.5 ± 0.1 logarithmic units. In addition, the “Growth halt or lysis (50/100 μM), Spn” value in assay [2] is given as “+++”.
With `CCCCCCCCCCCCCCCCCCNC(=O)[C@H](CCC(=O)O)NC(=O)[C@H]1CCCN1C(=O)[C@@H](N)CC(N)=O` [DICAM 2, Asn- Pro -Glu-NH-C18H37 ·HCl], the IC50 in assay [1] turned out to be 46.7 ± 0.7 µM. The “Growth halt or lysis (50/100 μM), Sa T” value with Staphylococcus aureus T is recorded as “++”. In addition, the “Growth halt or lysis (50/100 μM), Ec” value with Escherichia coli DH10B is reported as “-”. In addition, in the assay on S. pyogenes T, the EC50 was 14 ± 2 µM; the “Decrease of the number of viable bacteria in the inoculum within 2 h” value was 99.9–99.99%; the “Reduction of bacterial viability at 3 × SC, S. pyogenes T” value is reported as 94.5%–99.9; the “Δlogmax, S. pyogenes T” value is given as 3.9 ± 0.4 logarithmic units. Further, the “Growth halt or lysis (50/100 μM), Spn” value in assay [2] is reported as “+++”.
The molecule `CCCCCCCCCCCCCCCCCCNC(=O)[C@H](CCC(=O)O)NC(=O)[C@H]1CCCN1C(=O)[C@H](C)NC(=O)OCc1ccccc1` [DICAM 3, Cbz-Ala- Pro -Glu-NH-C18H37] displayed a half-maximal inhibitory concentration (IC50) in assay [1] of 75 ± 13 µM. Further, the “Growth halt or lysis (50/100 μM), Sa T” value in the assay with Staphylococcus aureus T is “-”. In the assay on Escherichia coli DH10B, the “Growth halt or lysis (50/100 μM), Ec” value is reported as “-”. For the same molecule, in the assay on S. pyogenes T, the “SC (stationary concentration, Δlog = 0), S. pyogenes T” value is 3–5 µM and 3.0 ± 0.4 µM; the EC50 is 8.1 ± 0.4 µM; the “Decrease of the number of viable bacteria in the inoculum within 2 h” value is 99.9–99.99%; the “Reduction of bacterial viability at 3 × SC, S. pyogenes T” value is 94.5%–99.9. For the same molecule, the “Δlogmax, S. pyogenes T” value in the assay with S. pyogenes T is given as 5.4 ± 0.1 logarithmic units. For the same molecule, the “Growth halt or lysis (50/100 μM), Spn” value in assay [2] was “+++”.
`CCCCCCCCCCCCCCCCCCNC(=O)[C@H](CCC(=O)O)NC(=O)[C@H]1CCCN1C(=O)[C@H](C)N` [DICAM 4, Ala- Pro -Glu-NH-C18H37 ·HCl] came in with an IC50 in assay [1] of 65 ± 3 µM. The “Growth halt or lysis (50/100 μM), Sa T” value with Staphylococcus aureus T was “++”. Further, in the assay on Escherichia coli DH10B, the “Growth halt or lysis (50/100 μM), Ec” value was “-”. In the assay on S. pyogenes T, the “SC (stationary concentration, Δlog = 0), S. pyogenes T” value is 10 ± 4 µM; the EC50 is 51 ± 10 µM; the “Δlogmax, S. pyogenes T” value is reported as 6.8 ± 0.8 logarithmic units. Further, the “Growth halt or lysis (50/100 μM), Spn” value in assay [2] is on record as “+++”.
The molecule `CCCCCCCCCCCCCCCCNC(=O)[C@H](CCC(=O)O)NC(=O)[C@H]1CCCN1C(=O)[C@H](CC(N)=O)NC(=O)OCc1ccccc1` [DICAM 10, Cbz-Asn- Pro -Glu-NH-C16H33] returned a 50% inhibitory concentration (IC50) in assay [1] of 45 ± 1 µM. Moreover, in the assay with S. pyogenes T, the EC50 was 6.8 ± 0.7 µM and the “Δlogmax, S. pyogenes T” value is on record as 2.6 ± 0.1 logarithmic units. The “Growth halt or lysis (50/100 μM), Spn” value in assay [2] is given as “+++”.
